This is an account of results in patent US9067888B2, “Inhibitors of protein kinases” (Ingenium Pharmaceuticals GmbH, priority 2010, dated 2015).

In experiment [1] the test system is TNF-alpha inducible reporter gene. The experiment can be described thus: Inhibition of TNF-alpha-induced reporter gene expression (luciferase) in HeLa-derived cell line. It is filed as cell-based, human. Conditions: Homo sapiens, 6 h, remaining luciferase activity in presence of 3 μM of compound as ratio of DMSO-treated cells, TNF-alpha 50 ng/ml, read-out: Efficacy (ratio to DMSO) TNF-alpha induced response. The text has this: TNF-alpha responsive cell lines like the human HeLa cell line can be used to study cellular responses to TNF-alpha, e.g. transcriptional regulation of a transfected TNF-alpha responsive reporter gene, and effects of kinase inhibitors on this response.
In order to analyse compound effects on TNF-alpha mediated transcriptional response, a HeLa-derived cell line stably transfected with a TNF-alpha inducible reporter gene was used (Panomics Catalog No. RC0013). The cell line was obtained by co-transfection of a luciferase reporter gene (Panomics P/N LR0051) and pHyg into human cervical epithelial HeLa cells, followed by hygromycin selection. TNFα-induced luciferase activity was used to select clones from the hygromycin-resistant cells. The cell line was maintained and stimulated according to the manufacturer's instructions. Briefly, cells were seeded at 5×10^5/well in 1 ml of growth medium in a 12-well plate and incubated in a humidified incubator at 37° C. and 5% CO2 for 24 hours. Medium was replaced with 1 ml of serum free medium and compounds were added up to concentrations of […]. After 1 hour of incubation, TNF-alpha was added to achieve a final concentration of 50 ng/ml. The culture dish was further incubated in a humidified incubator at 37° C. and 5% CO2 for 6 hours, medium was removed and 100 μL of lysis buffer were added to each well and the assay for luciferase activity was performed according to assay manufacturer's (Promega P/N E1500) recommendations. For more information about this cell line, go to worldwide website www(dot)panomics.com.
Compound effects on TNF-alpha-induced reporter gene expression is shown in column 6 in Table 1 given below. Indicated is the remaining luciferase activity after incubation in presence of 3 μM of compound as a ratio of the activity of DMSO-treated cells without compound. Specifically, it was intended to distinguish cell permeable compounds from other compounds having significant inhibitory potency with regard to other CDKs, but fail to penetrate cells or are unstable under the conditions of the experiment.

In experiment [2] the target is CDK9 (Homo sapiens (Human), UniProt P50750). The experiment is described as follows: In vitro kinase inhibition, KinaseProfiler service of Millipore, residual activity. It is filed as biochemical. From the text:
(§1) In vitro kinase assay analysis may be performed using standard techniques described in the art. These techniques are also used by commercial services providers in order to offer in vitro kinase activity assay services, e.g. the assays offered by Millipore Inc. (worldwide website www(dot)millipore.com), ProQinase GmbH (worldwide website www(dot)proqinase.de) and others.
In vitro kinase inhibition results shown in columns 7 to 9 in Table 1 were obtained by employing the KinaseProfiler™ service of Millipore and used to select compounds displaying specificity for CDK9. Specifically, it was intended to distinguish the CDK9-specific compounds from other compounds having significant inhibitory potency also with regard to other CDKs.

The target in experiment [3] is CDK1/CycB (Homo sapiens (Human), UniProt P06493). The experiment is described as follows: Kinase activity assay IC50 profile. The note with it: read-out: IC50 CDK1/B. It is filed as biochemical. The protocol: as §1
CDK1/CycB, sequence (P06493 whole entry): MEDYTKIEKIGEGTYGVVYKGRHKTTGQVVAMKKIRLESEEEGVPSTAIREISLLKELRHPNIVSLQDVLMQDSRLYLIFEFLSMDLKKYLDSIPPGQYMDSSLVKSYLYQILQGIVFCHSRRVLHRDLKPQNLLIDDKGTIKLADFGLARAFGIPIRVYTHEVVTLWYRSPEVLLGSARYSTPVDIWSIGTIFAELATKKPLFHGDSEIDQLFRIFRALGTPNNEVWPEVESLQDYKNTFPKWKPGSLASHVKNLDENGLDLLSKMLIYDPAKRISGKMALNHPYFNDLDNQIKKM
CDK1/CycB, sequence (P14635 whole entry partner): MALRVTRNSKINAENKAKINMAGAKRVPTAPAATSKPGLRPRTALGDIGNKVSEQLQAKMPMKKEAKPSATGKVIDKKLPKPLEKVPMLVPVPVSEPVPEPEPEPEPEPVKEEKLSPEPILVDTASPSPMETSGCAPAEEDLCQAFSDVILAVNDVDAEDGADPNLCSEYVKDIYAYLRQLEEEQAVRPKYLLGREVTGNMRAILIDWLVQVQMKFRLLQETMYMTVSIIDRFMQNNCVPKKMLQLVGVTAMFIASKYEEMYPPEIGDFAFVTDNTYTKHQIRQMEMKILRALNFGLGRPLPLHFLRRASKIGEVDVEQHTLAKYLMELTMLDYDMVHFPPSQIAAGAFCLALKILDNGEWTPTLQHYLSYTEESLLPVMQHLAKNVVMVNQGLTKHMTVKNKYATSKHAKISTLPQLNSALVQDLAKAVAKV
(§2) On the day of the kinase inhibition assay, 451 μl H2O were added to each well of a set of compound dilution plates. To minimize precipitation, the H2O was added to the plates only a few minutes before the transfer of the compound solutions into the assay plates. The plates were shaken thoroughly, resulting in “compound dilution plates/10%/DMSO” with a concentration of 1×10^−03 M/10% DMSO to 3×10^−08 M/10% DMSO in semilog steps. These plates were used for the transfer of 5 μl compound solution into the “assay plates”. The compound dilution plates were discarded at the end of the working day. For the assays (see below), 5 μl solution from each well of the compound dilution plates were transferred into the assay plates. The final volume of the assay was 50 μl. […]
(§3) The median value of the counts in column 1 (n=8) of each assay plate was defined as “low control”. This value reflects unspecific binding of radioactivity to the plate in the absence of a protein kinase but in the presence of the substrate. […]

The target of experiment [4] is CDK3/CycE (Homo sapiens (Human), UniProt Q00526). The experiment is described as follows: Kinase activity assay IC50 profile. In kind it is biochemical. The note with it: read-out: IC50 CDK3/E. As for the experimental part:
as §1, §2, §3

Experiment [5] concerns the target CDK2/CycA (Homo sapiens (Human), UniProt P24941). The experiment can be described thus: Kinase activity assay IC50 profile. It is filed as biochemical. The protocol:
as §1, §2, §3

Experiment [6] addresses CDK5/p35NCK (Homo sapiens (Human), UniProt Q00535). The experiment is described as follows: Kinase activity assay IC50 profile. It is filed as biochemical. The note with it: read-out: IC50 CDK5/p35. As for the experimental part:
as §1, §2, §3

Experiment [7] deals with CDK6/CycD3 (Homo sapiens (Human), UniProt Q00534). The experiment can be described thus: Kinase activity assay IC50 profile. It is filed as biochemical. The note with it: read-out: IC50 CDK6/D3.
CDK6/CycD3, sequence (Q00534 whole entry): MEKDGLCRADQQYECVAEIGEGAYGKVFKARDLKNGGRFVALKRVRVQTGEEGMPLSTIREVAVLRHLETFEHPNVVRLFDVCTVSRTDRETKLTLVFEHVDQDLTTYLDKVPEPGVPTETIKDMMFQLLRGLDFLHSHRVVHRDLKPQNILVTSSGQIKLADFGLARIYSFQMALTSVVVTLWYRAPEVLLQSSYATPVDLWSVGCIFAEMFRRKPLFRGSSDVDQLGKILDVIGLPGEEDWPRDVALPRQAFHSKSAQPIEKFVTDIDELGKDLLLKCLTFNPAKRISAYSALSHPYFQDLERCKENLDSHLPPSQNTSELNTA
CDK6/CycD3, sequence (P30281 whole entry partner): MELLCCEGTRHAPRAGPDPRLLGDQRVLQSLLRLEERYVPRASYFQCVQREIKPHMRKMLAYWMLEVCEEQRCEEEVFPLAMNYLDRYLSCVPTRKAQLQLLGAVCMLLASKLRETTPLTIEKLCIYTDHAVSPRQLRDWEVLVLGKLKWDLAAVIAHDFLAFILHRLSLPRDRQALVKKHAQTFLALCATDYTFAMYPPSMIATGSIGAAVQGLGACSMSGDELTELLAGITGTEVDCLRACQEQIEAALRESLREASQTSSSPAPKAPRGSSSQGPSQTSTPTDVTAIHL
The target of experiment [8] is CDK7/CycH/MAT1 (Homo sapiens (Human), UniProt P50613). The experiment can be described thus: Kinase activity assay IC50 profile. The note with it: read-out: IC50 CDK7/H/MAT1. In kind it is biochemical. As for the experimental part: as §1
(§4) On the day of the kinase inhibition assay, 451 μl H2O were added to each well of a set of compound dilution plates. To minimize precipitation, the H2O was added to the plates only a few minutes before the transfer of the compound solutions into the assay plates. The plates were shaken thoroughly, resulting in “compound dilution plates/10%/DMSO” with a concentration of 1×10^−03 M/10% DMSO to 3×10^−08 M/10% DMSO in semilog steps. These plates were used for the transfer of 5 μl compound solution into the “assay plates”. The compound dilution plates were discarded at the end of the working day. For the assays (see below), 5 μl solution from each well of the compound dilution plates were transferred into the assay plates. The final volume of the assay was 50 μl. All compounds were tested at 10 final assay concentrations in the range from 1×10^−04 M to 3×10^−09 M. The final DMSO concentration in the reaction mixtures was 1% in all cases.
(§5) All kinase assays were performed in 96-well FlashPlates™ from Perkin Elmer/NEN (Boston, Mass., USA) in a 50 μl reaction volume. The reaction mixture was pipetted in four steps in the following order: • 20 μl of assay buffer (standard buffer) • 5 μl of ATP solution (in H2O) • 5 μl of test compound (in 10% DMSO) • 10 μl of substrate/10 μl of enzyme solution (premixed)
(§6) The assay for all enzymes contained 60 mM HEPES-NaOH (pH 7.5), 3 mM MgCl2, 3 mM MnCl2, 3 μM Na-Orthovanadate, 1.2 mM DTT, 50 μg/ml PEG2000, 1 μM [^33P]-ATP (approx. 5 ×1005 cpm per well).
(§7) Reaction mixtures were incubated at 30° C. for 80 min. The reaction was stopped with 50 μl of 2% (v/v) H3PO4, plates were aspirated and washed two times with 200 μl H2O or 200 μl 0.9% (w/v) NaCl. Incorporation of ^33P was determined with a microplate scintillation counter (Microbeta, Wallac).
(§8) The median value of the counts in column 1 (n=8) of each assay plate was defined as “low control”. This value reflects unspecific binding of radioactivity to the plate in the absence of a protein kinase but in the presence of the substrate. […] The residual activity (in %) for each well of a particular plate was calculated by using the following formula: Res. Activity(%)=100×[(cpm of compound−low control)/(high control−low control)]
(§9) The residual activities for each concentration and the compound IC50 values were calculated using Quattro Workflow V2.0.1.3 (Quattro Research GmbH, Munich, Germany; worldwide website www(dot)quattro-research.com). […]

Experiment [9] has as its target GSK3-alpha (Homo sapiens (Human), UniProt P49840). The experiment can be described thus: Kinase activity assay IC50 profile. In kind it is biochemical. The note with it: read-out: IC50 GSK3a. As for the experimental part:
as §1, §4, §5, §6, §7, §8, §9

In experiment [10] the target is GSK3-beta (Homo sapiens (Human), UniProt P49841). The experiment can be described thus: Kinase activity assay IC50 profile. It is filed as biochemical. Conditions: read-out: IC50 GSK3b. As for the experimental part: as §1, §4, §5, §6, §7, §8, §9
GSK3-beta, sequence (P49841 whole entry): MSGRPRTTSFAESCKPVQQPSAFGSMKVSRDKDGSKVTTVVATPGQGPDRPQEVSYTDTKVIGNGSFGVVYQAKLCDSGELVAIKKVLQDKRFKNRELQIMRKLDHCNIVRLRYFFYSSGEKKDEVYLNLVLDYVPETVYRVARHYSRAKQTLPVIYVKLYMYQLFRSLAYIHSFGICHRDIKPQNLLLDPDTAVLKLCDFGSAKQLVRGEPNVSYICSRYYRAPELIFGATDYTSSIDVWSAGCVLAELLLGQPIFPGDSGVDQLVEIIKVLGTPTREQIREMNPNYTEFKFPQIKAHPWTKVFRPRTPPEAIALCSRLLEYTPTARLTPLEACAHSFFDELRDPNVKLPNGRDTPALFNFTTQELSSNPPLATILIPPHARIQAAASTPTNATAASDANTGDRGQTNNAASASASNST
Experiment [11] has as its target IRAK1 (Homo sapiens (Human), UniProt P51617). The experiment is described as follows: Kinase activity assay IC50 profile. In kind it is biochemical. The protocol: as §1, §4, §5, §6, §7, §8, §9

CDK9, sequence (P50750 whole entry): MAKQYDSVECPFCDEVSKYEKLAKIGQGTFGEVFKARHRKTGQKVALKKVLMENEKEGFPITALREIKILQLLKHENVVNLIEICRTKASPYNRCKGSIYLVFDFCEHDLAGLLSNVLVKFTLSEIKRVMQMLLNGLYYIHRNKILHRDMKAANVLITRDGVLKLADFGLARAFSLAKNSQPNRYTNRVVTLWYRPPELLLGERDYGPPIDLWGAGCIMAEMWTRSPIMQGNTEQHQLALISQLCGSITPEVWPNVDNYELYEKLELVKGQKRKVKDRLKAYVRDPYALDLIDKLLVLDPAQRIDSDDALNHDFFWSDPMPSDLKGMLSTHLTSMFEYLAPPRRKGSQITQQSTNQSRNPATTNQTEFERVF
CDK9, sequence (O60563 whole entry partner): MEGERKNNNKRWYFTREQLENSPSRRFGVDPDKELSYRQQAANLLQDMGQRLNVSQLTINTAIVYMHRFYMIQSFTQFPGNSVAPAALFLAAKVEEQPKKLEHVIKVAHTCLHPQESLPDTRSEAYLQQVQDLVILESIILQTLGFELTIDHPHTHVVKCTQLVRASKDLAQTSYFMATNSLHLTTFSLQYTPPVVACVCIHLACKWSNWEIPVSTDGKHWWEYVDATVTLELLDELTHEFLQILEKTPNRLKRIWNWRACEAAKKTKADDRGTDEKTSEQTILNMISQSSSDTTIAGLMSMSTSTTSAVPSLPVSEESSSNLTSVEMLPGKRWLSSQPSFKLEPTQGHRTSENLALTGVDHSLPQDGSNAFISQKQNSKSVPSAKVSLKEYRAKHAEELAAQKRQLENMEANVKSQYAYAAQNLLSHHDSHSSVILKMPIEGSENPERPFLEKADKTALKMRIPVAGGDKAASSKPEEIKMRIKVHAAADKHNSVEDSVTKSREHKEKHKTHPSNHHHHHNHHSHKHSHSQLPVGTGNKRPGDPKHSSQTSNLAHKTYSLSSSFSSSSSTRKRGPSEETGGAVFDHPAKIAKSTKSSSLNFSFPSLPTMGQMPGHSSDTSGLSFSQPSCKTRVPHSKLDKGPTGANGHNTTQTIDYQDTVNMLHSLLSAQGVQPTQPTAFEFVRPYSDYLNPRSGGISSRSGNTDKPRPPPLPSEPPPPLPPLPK
GSK3-alpha, sequence (P49840 whole entry): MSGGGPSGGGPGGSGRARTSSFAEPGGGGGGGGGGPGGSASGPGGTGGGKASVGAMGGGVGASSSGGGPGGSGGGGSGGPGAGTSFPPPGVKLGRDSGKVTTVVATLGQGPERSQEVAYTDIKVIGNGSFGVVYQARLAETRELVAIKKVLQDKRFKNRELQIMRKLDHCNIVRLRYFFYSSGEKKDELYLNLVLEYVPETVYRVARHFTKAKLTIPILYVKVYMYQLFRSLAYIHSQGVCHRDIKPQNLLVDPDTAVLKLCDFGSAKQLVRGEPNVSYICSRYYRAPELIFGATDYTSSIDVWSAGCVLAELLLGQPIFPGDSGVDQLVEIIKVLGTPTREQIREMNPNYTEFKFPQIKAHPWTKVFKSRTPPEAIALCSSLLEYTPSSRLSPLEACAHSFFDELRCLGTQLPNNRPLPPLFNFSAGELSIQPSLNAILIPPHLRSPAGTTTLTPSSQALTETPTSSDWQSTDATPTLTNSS
IRAK1, sequence (P51617 whole entry): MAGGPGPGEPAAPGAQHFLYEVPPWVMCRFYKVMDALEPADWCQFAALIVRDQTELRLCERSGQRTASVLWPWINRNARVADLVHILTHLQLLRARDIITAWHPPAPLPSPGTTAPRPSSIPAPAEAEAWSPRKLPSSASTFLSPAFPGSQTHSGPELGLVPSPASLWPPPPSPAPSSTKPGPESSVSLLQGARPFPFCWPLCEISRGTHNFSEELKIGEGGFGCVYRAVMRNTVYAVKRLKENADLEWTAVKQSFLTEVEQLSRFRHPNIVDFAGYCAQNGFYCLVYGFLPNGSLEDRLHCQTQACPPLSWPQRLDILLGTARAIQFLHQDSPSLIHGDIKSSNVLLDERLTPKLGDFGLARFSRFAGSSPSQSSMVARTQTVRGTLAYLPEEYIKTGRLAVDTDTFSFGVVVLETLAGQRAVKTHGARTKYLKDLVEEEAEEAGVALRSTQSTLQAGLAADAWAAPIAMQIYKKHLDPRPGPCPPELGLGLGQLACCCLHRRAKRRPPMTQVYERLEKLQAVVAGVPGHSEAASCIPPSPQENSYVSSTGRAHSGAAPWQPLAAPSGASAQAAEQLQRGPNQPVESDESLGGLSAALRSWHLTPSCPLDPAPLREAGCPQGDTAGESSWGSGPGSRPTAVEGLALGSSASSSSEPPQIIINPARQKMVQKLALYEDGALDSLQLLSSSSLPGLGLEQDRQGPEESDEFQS
CDK5/p35NCK, sequence (Q00535 whole entry): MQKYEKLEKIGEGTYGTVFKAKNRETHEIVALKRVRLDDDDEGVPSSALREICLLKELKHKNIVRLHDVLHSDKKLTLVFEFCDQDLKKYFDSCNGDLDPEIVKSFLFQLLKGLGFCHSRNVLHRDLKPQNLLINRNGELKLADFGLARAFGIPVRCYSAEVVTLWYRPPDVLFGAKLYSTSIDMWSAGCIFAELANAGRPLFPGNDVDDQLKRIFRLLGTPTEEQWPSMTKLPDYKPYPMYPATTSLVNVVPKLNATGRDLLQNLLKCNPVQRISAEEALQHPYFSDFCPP
CDK5/p35NCK, sequence (Q15078 whole entry partner): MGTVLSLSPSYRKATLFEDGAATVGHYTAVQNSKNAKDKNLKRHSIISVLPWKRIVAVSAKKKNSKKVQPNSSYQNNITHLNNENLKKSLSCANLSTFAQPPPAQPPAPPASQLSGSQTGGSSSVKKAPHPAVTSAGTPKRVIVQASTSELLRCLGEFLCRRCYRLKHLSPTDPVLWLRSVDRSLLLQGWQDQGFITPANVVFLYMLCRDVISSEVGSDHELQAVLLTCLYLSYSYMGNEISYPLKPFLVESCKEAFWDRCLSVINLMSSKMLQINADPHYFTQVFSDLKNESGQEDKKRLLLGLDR

Consider `COc1cc(F)ccc1-c1ccnc(NC(=O)[C@H]2CCC[C@@H](NC(C)=O)C2)c1` (relative stereo) [Example 33, cis-3-Acetamido-N-(4-(4-fluoro-2-methoxyphenyl)pyridin-2-yl)cyclo-hexanecarboxamide], for which the activity at 3 µM in experiment [1] turned out to be 3%. Further, in [2] (residual activity at 10 nM compound, read-out: CDK9 10 nM (RA in %)), the remaining activity at 0.01 µM turned out to be 29%. Moreover, the remaining activity at 0.1 µM in [2] (residual activity at 100 nM compound, read-out: CDK9 100 nM (RA in %)) is 3%. In addition, the IC50 in experiment [3] was 0.094 µM; in experiment [4], 0.219 µM; in experiment [5], 0.168 µM; in experiment [6], 1.08 µM; in [7], greater than 5 µM; in experiment [8], greater than 5 µM. Also, the IC50 in experiment [9] is 0.16 µM; in [10], 0.903 µM; in experiment [11], greater than 5 µM.
